Test results: patent US10336702B2, “Pharmaceutically active compounds” (BERGENBIO ASA, priority 2015, dated 2019)

What was measured:
Akt2 = target: T1, Akt2 (Homo sapiens, UniProt P31751); test: Akt activation assay (PDK1-mediated activation, LANCE Ultra crosstide TR-FRET), Akt2; assay type: biochemical; settings: read-out: Biological Assay 1 IC50 (nM) Akt2
T1 construct: unspecified tag, removed (detagged) (cleaved yes); purchased SignalChem and Proteros (Akt2); Merck Millipore (PDK1) 14-452 (PDK1); none given for Akt2
T1 sequence (P31751 whole entry): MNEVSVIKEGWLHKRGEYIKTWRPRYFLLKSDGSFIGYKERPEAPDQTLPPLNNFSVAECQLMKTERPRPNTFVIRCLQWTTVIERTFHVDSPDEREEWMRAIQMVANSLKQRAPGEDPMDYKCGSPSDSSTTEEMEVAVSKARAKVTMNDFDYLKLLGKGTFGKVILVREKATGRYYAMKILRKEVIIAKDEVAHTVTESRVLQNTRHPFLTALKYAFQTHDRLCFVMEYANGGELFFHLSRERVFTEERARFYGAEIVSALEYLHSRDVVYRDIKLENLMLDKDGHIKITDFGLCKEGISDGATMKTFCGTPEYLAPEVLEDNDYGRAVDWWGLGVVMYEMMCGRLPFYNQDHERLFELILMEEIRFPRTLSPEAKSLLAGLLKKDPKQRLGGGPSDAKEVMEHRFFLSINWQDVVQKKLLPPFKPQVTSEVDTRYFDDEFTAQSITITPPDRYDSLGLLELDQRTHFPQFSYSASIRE
Summary of the method: (§1)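 Human Akt1, Akt2 or Akt3 (SignalChem: 5, 15, 3 nM; Proteros: 5 nM each) was preincubated with compound, then activated by 5 nM PDK1 on PtdIns(3,4,5)P3/DOPS/DOPC vesicles with 100 µM ATP and 100 nM ULight-crosstide (HEPES pH 7.5, 1% DMSO) for 30 min. Product was detected by Eu-anti-phospho-crosstide TR-FRET (665/615 nm), with IC50 from a 4-parameter fit.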

Akt3 = target: T2, Akt3 (Homo sapiens, UniProt Q9Y243); test: Akt activation assay (PDK1-mediated activation, LANCE Ultra crosstide TR-FRET), Akt3; assay type: biochemical; settings: read-out: Biological Assay 1 IC50 (nM) Akt3
T2 construct: unspecified tag, removed (detagged) (cleaved yes); purchased SignalChem and Proteros (Akt3); Merck Millipore (PDK1) 14-452 (PDK1); none given for Akt3
T2 sequence (Q9Y243 whole entry): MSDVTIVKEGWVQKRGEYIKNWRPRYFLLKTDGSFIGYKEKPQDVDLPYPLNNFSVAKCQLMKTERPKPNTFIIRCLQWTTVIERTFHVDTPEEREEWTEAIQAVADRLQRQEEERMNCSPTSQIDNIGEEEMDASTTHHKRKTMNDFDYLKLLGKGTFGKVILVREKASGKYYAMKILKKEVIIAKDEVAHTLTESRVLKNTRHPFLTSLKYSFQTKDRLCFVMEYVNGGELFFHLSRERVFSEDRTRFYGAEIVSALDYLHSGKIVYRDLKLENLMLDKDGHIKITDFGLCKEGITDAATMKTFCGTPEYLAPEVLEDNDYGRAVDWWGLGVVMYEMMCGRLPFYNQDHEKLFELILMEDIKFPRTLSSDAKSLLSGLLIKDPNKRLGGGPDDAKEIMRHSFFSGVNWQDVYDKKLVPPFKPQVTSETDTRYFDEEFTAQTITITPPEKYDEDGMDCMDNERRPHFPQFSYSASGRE
Summary of the method: as §1

p-Akt1 in LNCaP cells = target: T3, p-Akt1 in LNCaP cells (Homo sapiens, UniProt P31749); test: Phospho-Akt cellular SureFire assay, p-Akt1 in LNCaP cells; assay type: cell-based; settings: read-out: Biological Assay 2 IC50 (nM) Akt1 LNCaP
T3 construct: SureFire assays to detect cellular p-Akt1, p-Akt2 and p-Akt3 levels in WM115 cells (Akt2/3) and LNCaP cells (Akt1); endogenous in cells; host or cells: LNCaP (ECACC 89110211)
T3 sequence (P31749 whole entry): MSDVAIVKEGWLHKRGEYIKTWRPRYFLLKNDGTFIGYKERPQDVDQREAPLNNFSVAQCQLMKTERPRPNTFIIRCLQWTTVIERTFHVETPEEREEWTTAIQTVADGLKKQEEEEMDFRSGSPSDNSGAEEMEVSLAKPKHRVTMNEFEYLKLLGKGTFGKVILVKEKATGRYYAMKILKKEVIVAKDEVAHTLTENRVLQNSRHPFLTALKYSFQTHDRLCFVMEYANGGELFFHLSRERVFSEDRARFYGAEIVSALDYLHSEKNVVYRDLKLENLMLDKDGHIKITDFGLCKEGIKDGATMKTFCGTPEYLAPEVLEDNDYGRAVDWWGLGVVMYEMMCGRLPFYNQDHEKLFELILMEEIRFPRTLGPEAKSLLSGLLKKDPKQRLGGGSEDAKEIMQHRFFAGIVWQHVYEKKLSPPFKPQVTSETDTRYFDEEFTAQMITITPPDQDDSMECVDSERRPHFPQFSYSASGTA
From the text: Biological Assay 2: Phospho-Akt (p-Akt) Cellular SureFire Assays
The following describes SureFire assays to detect cellular p-Akt1, p-Akt2 and p-Akt3 levels in WM115 cells (Akt2/3) and LNCaP cells (Akt1). In the case of Akt2 and Akt3, Streptavidin-coated donor beads capture a biotinylated anti-mouse antibody that in turn recognises a mouse total Akt antibody which is specific to each isoform. The protein A-conjugated acceptor beads capture an antibody that recognises the phosphoprotein. Similarly in the Akt1 kit, the donor and acceptor beads are used to capture each antibody pair consisting of an antibody that specifically recognises Akt1 as well as an antibody that recognises the phosphoprotein. In each case, close proximity of the beads allows energy transfer from donor to acceptor.
AlphaScreen® SureFire™ Phospho-Akt1 (pThr308) Kit from Perkin Elmer (TGRA2S10K)
LNCaP cells (ECACC, 89110211) cultured in RPMI-1640 culture media (Fisher, 10665193) supplemented with 2 mM L-glutamine, 1% sodium pyruvate and 10% FBS
Cell treatment: 1×10^5 WM115 cells or 5×10^4 LNCaP cells were seeded into each well of a 96 well poly-D-Lysine coated tissue culture plate and incubated overnight at 37° C.+5% CO2. Media was removed from cells and replaced with assay buffer consisting of the full culture media described above but with 0.1% FBS instead of 10% FBS. Only WM115 cells were stimulated at 37° C.+5% CO2 for 10 min with 5 μL insulin at a final concentration of 100 nM. Cells were incubated with 5 μL of test compound at a final DMSO concentration of 0.3% for 15 min at 37° C.+5% CO2. Cell lysis was carried out according to kit instructions.
Assay format (performed in subdued lighting): 4 μL cell lysate and 5 μL reaction buffer were incubated together in the dark at room temperature for 2 h. Reaction buffer was supplemented with a 1/5 dilution of activation buffer, a 1/50 dilution of acceptor beads and in the case of the custom kits, antibodies were added at dilutions of 1/20,000 for Akt2 and 1/2,000 for Akt3.
2 μL dilution buffer, supplemented with a 1/20 dilution of donor beads was added to each well and incubated for a further 2 h. Plates were read with the EnVision® Multilabel Plate Reader and using the AlphaScreen settings. Compound IC50 was determined using a 4-parameter equation.

p-Akt2 in WM115 cells = target: T4, p-Akt2 in WM115 cells (Homo sapiens, UniProt P31751); test: Phospho-Akt cellular SureFire assay, p-Akt2 in WM115 cells; assay type: cell-based; settings: insulin stimulated, read-out: Biological Assay 2 IC50 (nM) Akt2 WM115
T4 construct: SureFire assays to detect cellular p-Akt1, p-Akt2 and p-Akt3 levels in WM115 cells (Akt2/3) and LNCaP cells (Akt1); endogenous in cells; host or cells: WM115 (ECACC 91061232), insulin-stimulated
T4 sequence (P31751 whole entry): as the sequence (P31751 whole entry) above
Summary of the method: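 WM115 cells in 0.1% FBS medium stimulated 10 min with 100 nM insulin, then exposed to compound for 15 min at 37° C (0.3% DMSO final). Lysates assayed by AlphaScreen with anti-(pThr308)Akt and isoform-specific total Akt2 antibodies; IC50 from 4-parameter fit.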

p-Akt3 in WM115 cells = target: T5, p-Akt3 in WM115 cells (Homo sapiens, UniProt Q9Y243); test: Phospho-Akt cellular SureFire assay, p-Akt3 in WM115 cells; assay type: cell-based; settings: insulin stimulated, read-out: Biological Assay 2 IC50 (nM) Akt3 WM115
T5 construct: SureFire assays to detect cellular p-Akt1, p-Akt2 and p-Akt3 levels in WM115 cells (Akt2/3) and LNCaP cells (Akt1); endogenous in cells; host or cells: WM115 (ECACC 91061232), insulin-stimulated
T5 sequence (Q9Y243 whole entry): as the sequence (Q9Y243 whole entry) above
Summary of the method: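 WM115 cells were serum-reduced to 0.1% FBS, stimulated with 100 nM insulin for 10 min, then exposed to compound (0.3% DMSO) for 15 min at 37 °C. Lysates were assayed for Thr308-phosphorylated Akt3 by AlphaScreen SureFire using an isoform-specific total Akt3 capture antibody. IC50 was derived from a 4-parameter fit.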

Row | IC50 (Akt2) | IC50 (Akt3) | IC50 (p-Akt1 in LNCaP cells) | IC50 (p-Akt2 in WM115 cells) | IC50 (p-Akt3 in WM115 cells) | SMILES
1 | 1300 nM | 59 nM | > 27000 nM | 4300 nM | 120 nM | COC(=O)N(C)[C@H]1CC[C@H](CC(=O)Nc2cc(-c3ccsc3)c(-c3ccc(C4(N)CCC4)cc3)nn2)CC1 [Example 81, Methyl (trans-4-(2-((6-(4-(1-aminocyclobutyl)phenyl)-5-(thiophen-3-yl)pyridazin-3-yl)amino)-2-oxoethyl)cyclohexyl)(methyl)carbamate]
2 | 3100 nM | 2300 nM | > 14000 nM | 4200 nM | 180 nM | COCCN(C)[C@H]1CC[C@H](CC(=O)Nc2cnc(-c3ccc(C4(N)CCC4)cc3)c(-c3ccsc3)c2)CC1 [Example 39, N-(6-(4-(1-aminocyclobutyl)phenyl)-5-(thiophen-3-yl)pyridin-3-yl)-2-(trans-4-((2-methoxyethyl)(methyl)amino)cyclohexyl)acetamide]
3 | 970 nM | 280 nM | > 21000 nM | 6400 nM | 240 nM | COC(=O)N(C)[C@H]1CC[C@H](C(C)C(=O)Nc2cnc(-c3ccc(C4(N)CCC4)cc3)c(-c3ccccc3)c2)CC1 (relative stereo) [Example 54, Methyl (trans-4-(1-((6-(4-(1-aminocyclobutyl)phenyl)-5-phenylpyridin-3-yl)amino)-1-oxopropan-2-yl)cyclohexyl)(methyl)carbamate]
4 | 850 nM | 40 nM | > 30000 nM | 7400 nM | 250 nM | COC(=O)N(C)[C@H]1CC[C@H](CC(=O)Nc2cnc(-c3ccc(C4(N)CCC4)cc3)c(-c3ccsc3)c2)CC1 [Example A68, Methyl (trans-4-(2-((6-(4-(1-aminocyclobutyl)phenyl)-5-(thiophen-3-yl)pyridin-3-yl)amino)-2-oxoethyl)cyclohexyl)(methyl)carbamate]
5 | 630 nM | 22 nM | > 30000 nM | 15000 nM | 670 nM | COC(=O)N(C)[C@H]1CC[C@H](CC(=O)Nc2cc(-c3ccccc3)c(-c3ccc([C@]4(N)C[C@H](F)C4)cc3)nn2)CC1 [Example A60, Methyl (trans-4-(2-((6-(4-(trans-1-amino-3-fluorocyclobutyl)phenyl)-5-phenylpyridazin-3-yl)amino)-2-oxoethyl)cyclohexyl)(methyl)carbamate]
6 | 360 nM | 23 nM | > 10000 nM | 2700 nM | 110 nM | CC(C)N(C(=O)C1CC1)[C@H]1CC[C@H](CC(=O)Nc2cc(-c3ccccc3)c(-c3ccc([C@]4(N)C[C@](C)(O)C4)cc3)cn2)CC1 [Example A108, N-(trans-4-(2-((5-(4-(trans-1-amino-3-hydroxy-3-methylcyclobutyl)phenyl)-4-phenylpyridin-2-yl)amino)-2-oxoethyl)cyclohexyl)-N-isopropylcyclopropanecarboxamide]
7 | 78 nM | 11 nM | 2600 nM | 390 nM | 15 nM | COC(=O)N[C@H]1CC[C@H](CC(=O)Nc2cc(-c3ccccc3)c(-c3ccc([C@]4(N)C[C@](C)(O)C4)cc3)cn2)CC1 [Example 103, Methyl (trans-4-(2-((5-(4-(trans-1-amino-3-hydroxy-3-methylcyclobutyl)phenyl)-4-phenylpyridin-2-yl)amino)-2-oxoethyl)cyclohexyl)carbamate]
8 | 540 nM | 92 nM | 9800 nM | 2500 nM | 100 nM | CC(=O)N(C)[C@H]1CC[C@H](CC(=O)Nc2cc(-c3ccccc3)c(-c3ccc(C4(N)CCC4)cc3)cn2)CC1 [Example 33, N-(5-(4-(1-aminocyclobutyl)phenyl)-4-phenylpyridin-2-yl)-2-(trans-4-(N-methylacetamido)cyclohexyl)acetamide]
9 | 240 nM | 170 nM | > 30000 nM | 1500 nM | 130 nM | CC(=O)N[C@H]1CC[C@H](C(C)C(=O)Nc2cnc(-c3ccc(C4(N)CCC4)cc3)c(-c3ccccc3)c2)CC1 (relative stereo) [Example 41, 2-(trans-4-acetamidocyclohexyl)-N-(6-(4-(1-aminocyclobutyl)phenyl)-5-phenylpyridin-3-yl)propanamide]
10 | 77 nM | 13 nM | 4700 nM | 600 nM | 20 nM | CC(C)C(=O)N(C)[C@H]1CC[C@H](CC(=O)Nc2cc(-c3ccccc3)c(-c3ccc([C@]4(N)C[C@](C)(O)C4)cc3)cn2)CC1 [Example 85, N-(trans-4-(2-((5-(4-(trans-1-amino-3-hydroxy-3-methylcyclobutyl)phenyl)-4-phenylpyridin-2-yl)amino)-2-oxoethyl)cyclohexyl)-N-methylisobutyramide]
11 | 380 nM | 17 nM | 8800 nM | 1200 nM | 16 nM | CCC(=O)N(C)[C@H]1CC[C@H](CC(=O)Nc2cc(-c3ccsc3)c(-c3ccc([C@]4(N)C[C@](C)(O)C4)cc3)cn2)CC1 [Example 110, N-(trans-4-(2-((5-(4-(trans-1-amino-3-hydroxy-3-methylcyclobutyl)phenyl)-4-(thiophen-3-yl)pyridin-2-yl)amino)-2-oxoethyl)cyclohexyl)-N-methylpropionamide]
12 | 130 nM | 8 nM | 5800 nM | 360 nM | 17 nM | C[C@]1(O)C[C@@](N)(c2ccc(-c3cnc(NC(=O)C[C@H]4CC[C@H](N5CCOC5=O)CC4)cc3-c3ccccc3)cc2)C1 [Example A57, N-(5-(4-(trans-1-amino-3-hydroxy-3-methylcyclobutyl)phenyl)-4-phenylpyridin-2-yl)-2-(trans-4-(2-oxooxazolidin-3-yl)cyclohexyl)acetamide]
13 | 11000 nM | 750 nM | > 30000 nM | 23000 nM | 1700 nM | COC(=O)N[C@H]1CC[C@H](CC(=O)Nc2cc(-c3ccccc3)c(-c3ccc(C4(N)CC4)c(F)c3)cn2)CC1 [Example A106, Methyl (trans-4-(2-((5-(4-(1-aminocyclopropyl)-3-fluorophenyl)-4-phenylpyridin-2-yl)amino)-2-oxoethyl)cyclohexyl)carbamate]
14 | 190 nM | 8 nM | 7900 nM | 480 nM | 11 nM | CC(=O)N(C)[C@H]1CC[C@H](CC(=O)Nc2cc(-c3ccccc3)c(-c3ccc([C@]4(N)C[C@](C)(O)C4)cc3)cn2)CC1 [Example A58, N-(5-(4-(trans-1-amino-3-hydroxy-3-methylcyclobutyl)phenyl)-4-phenylpyridin-2-yl)-2-(trans-4-(N-methylacetamido)cyclohexyl)acetamide]
